Patent EP4759807A1, “PROTEOLYSIS TARGETING CHIMERA COMPOUND FOR DEGRADING IRAK4 AND USE THEREOF” (Shenzhen Zhongge Biological Technology Co., Ltd., priority 2023, dated 2025)
Like-named read-outs stand apart in the source and are kept apart here.

Target: T1, IRAK4 (Homo sapiens, UniProt Q9NWZ3)
T1 sequence (Q9NWZ3 1-460): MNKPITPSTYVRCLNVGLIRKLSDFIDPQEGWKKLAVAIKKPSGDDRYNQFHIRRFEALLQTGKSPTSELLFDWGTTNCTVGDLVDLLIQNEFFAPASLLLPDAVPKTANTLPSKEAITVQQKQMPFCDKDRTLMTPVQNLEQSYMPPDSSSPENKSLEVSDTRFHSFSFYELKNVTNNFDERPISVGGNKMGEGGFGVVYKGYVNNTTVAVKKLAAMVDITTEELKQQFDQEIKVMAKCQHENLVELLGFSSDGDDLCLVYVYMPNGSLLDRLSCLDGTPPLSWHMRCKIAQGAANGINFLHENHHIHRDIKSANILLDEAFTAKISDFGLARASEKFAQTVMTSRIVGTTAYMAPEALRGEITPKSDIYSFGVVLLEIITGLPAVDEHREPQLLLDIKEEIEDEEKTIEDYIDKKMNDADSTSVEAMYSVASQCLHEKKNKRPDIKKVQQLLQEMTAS
Assay: Hibit fluorescence detection of proteolysis (IRAK4-HiBiT in HEK293T cells)
Type: cell-based
Design: host or cells: HEK293T (ATCC)
Settings: for Dmax: HEK-293T; for DC50: IRAK4-HiBiT, HEK293T cells, 24 h
Method: Utilizing HiBiT tag technology, the HiBiT tag-containing sequence (Seq. ID. No. 1, Beijing Tsingke Biotech Co., Ltd.) was connected to the IRAK4 plasmid (Seq. ID. No. 2, Beijing Tsingke Biotech Co., Ltd.), and the plasmid was transfected into HEK293T cells (ATCC). […] The 6-well plate that was incubated overnight was taken out. After the plate was left at room temperature for 15 min, the obtained mixture was added dropwise to the 6-well plate. […] Culture was performed at 37°C and 5% CO2 for 24 h. The 384-well plate was taken out and equilibrated to room temperature. 40 µL of Nano-Glo® HiBiT Lytic Detection System (Promega N3030) was added to each well and incubated at room temperature for 15 min. […] Prism 9.3 software was used to perform fitting analysis for data, and non-linear fitting (non-liner inhibitor (Bell-shaped)) and four parameters (4 parameter) were used, and the parameters was as follows: Span1 = Plateau1−Dip [formula] Span2 = Plateau2−Dip [formula] Section1 = Span1/(1+10^(∧)((LogEC50_1−X)*nH1)) [formula] Section2 = Span2/(1+10^(∧)((X−LogEC50_2)*nH2)) [formula]
The equation was as follows: Y=Dip+Section1+Section2. • Seq. ID. No. 1 ([…]), other DNA, synthetic construct, sequence length 33; • Seq. ID. No. 2 [formula]

Structure (SMILES)	Dmax	DC50 (read-out: DC50)	DC50
Cn1c(=O)n(C2CCC(=O)NC2=O)c2cccc(N3CCC4(CCN(C[C@H]5CC[C@H](n6cc(-n7cc(-c8cnn9cc(C#N)cnc89)nn7)c(C(F)F)n6)CC5)C4)CC3)c21 (some centres unmarked) [Compound 189]	60 to 70%	0.5 to 1 nM	–
Cn1c(=O)n(C2CCC(=O)NC2=O)c2cccc(N3CCC(N4CCN(C[C@H]5CC[C@H](n6cc(-n7cc(-c8cnn9cc(C#N)cnc89)nn7)c(C(F)F)n6)CC5)CC4)CC3)c21 (some centres unmarked) [Compound 197]	60 to 70%	1 to 5 nM	–
Cn1c(=O)n(C2CCC(=O)NC2=O)c2cccc(N3CCC4(CCN(C[C@H]5CC[C@H](n6cc(-n7cc(-c8cnn9cc(C#N)cnc89)nn7)c(C(F)F)n6)CC5)CC4)CC3)c21 (some centres unmarked) [Compound 199]	60 to 70%	1 to 5 nM	–
Cn1c(=O)n(C2CCC(=O)NC2=O)c2cccc(N3CCC4(CCN(C[C@H]5CC[C@H](n6cc(-n7cc(-c8cnn9cc(C#N)cnc89)nn7)c(C(F)F)n6)CC5)CC4)C3)c21 (some centres unmarked) [Compound 202]	< 60%	0.5 to 1 nM	–
C[C@H]1CN(c2ccn3ncc(-c4cn(-c5cn([C@H]6CC[C@H](CN7CCC8(CC7)CCN(c7cccc9c7n(C)c(=O)n9C7CCC(=O)NC7=O)C8)CC6)nc5C(F)F)nn4)c3n2)CCO1 (some centres unmarked) [Compound 203]	> 80%	< 0.5 nM	–
Cn1c(=O)n(C2CCC(=O)NC2=O)c2cccc(N3CCN(C4CCN(C[C@H]5CC[C@H](n6cc(-n7cc(-c8cnn9cc(C#N)cnc89)nn7)c(C(F)F)n6)CC5)CC4)CC3)c21 (some centres unmarked) [Compound 206]	< 60%	0.5 to 1 nM	–
C[C@H]1CN(c2ccn3ncc(-c4cn(-c5cn([C@H]6CC[C@H](CN7CC8(CCN(c9cccc%10c9n(C)c(=O)n%10C9CCC(=O)NC9=O)CC8)C7)CC6)nc5C(F)F)nn4)c3n2)CCO1 (some centres unmarked) [Compound 212]	> 80%	< 0.5 nM	–
Cn1c(=O)n(C2CCC(=O)NC2=O)c2cccc(N3CCC4(CCN(C[C@H]5CC[C@H](n6cc(-n7cc(-c8cnn9ccc(N%10CC%11(COC%11)C%10)nc89)nn7)c(C(F)F)n6)CC5)CC4)CC3)c21 (some centres unmarked) [Compound 223]	> 80%	< 0.5 nM	–
Cn1c(=O)n(C2CCC(=O)NC2=O)c2cccc(N3CCC(N4CCN(C[C@H]5CC[C@H](n6cc(-n7cc(-c8cnn9ccc(N%10CC%11(COC%11)C%10)nc89)nn7)c(C(F)F)n6)CC5)CC4)CC3)c21 (some centres unmarked) [Compound 224]	> 80%	< 0.5 nM	–
Cn1c(=O)n(C2CCC(=O)NC2=O)c2cccc(N3CCN(C[C@H]4CC[C@H](n5cc(-n6cc(-c7cnn8ccc(NCC9CC9)nc78)nn6)c(C(F)F)n5)CC4)CC3)c21 (some centres unmarked) [Compound 225]	70 to 80%	< 0.5 nM	–
Cn1c(=O)n(C2CCC(=O)NC2=O)c2cccc(N[C@H]3CC[C@H](N(C)C[C@H]4CC[C@H](n5cc(-n6cc(-c7cnn8ccc(NCC9CC9)nc78)nn6)c(C(F)F)n5)CC4)CC3)c21 (some centres unmarked) [Compound 226]	> 80%	< 0.5 nM	–
CN1CCN(c2ccn3ncc(-c4cn(-c5cn([C@H]6CC[C@H](CN7CCN(c8cccc9c8n(C)c(=O)n9C8CCC(=O)NC8=O)CC7)CC6)nc5C(F)F)nn4)c3n2)CC1 (some centres unmarked) [Compound 227]	60 to 70%	1 to 5 nM	–
CN1CCN(c2ccn3ncc(-c4cn(-c5cn([C@H]6CC[C@H](CN7CCC8(CC7)CCN(c7cccc9c7n(C)c(=O)n9C7CCC(=O)NC7=O)C8)CC6)nc5C(F)F)nn4)c3n2)CC1 (some centres unmarked) [Compound 228]	70 to 80%	< 0.5 nM	–
CN1CCN(c2ccn3ncc(-c4cn(-c5cn([C@H]6CC[C@H](CN7CCC(N8CCN(c9cccc%10c9n(C)c(=O)n%10C9CCC(=O)NC9=O)CC8)CC7)CC6)nc5C(F)F)nn4)c3n2)CC1 (some centres unmarked) [Compound 229]	60 to 70%	< 0.5 nM	–
CN1CCN(c2ccn3ncc(-c4cn(-c5cn([C@H]6CC[C@H](CN(C)[C@H]7CC[C@H](Nc8cccc9c8n(C)c(=O)n9C8CCC(=O)NC8=O)CC7)CC6)nc5C(F)F)nn4)c3n2)CC1 (some centres unmarked) [Compound 230]	60 to 70%	0.5 to 1 nM	–
CN1CCN(c2ccn3ncc(-c4cn(-c5cn([C@H]6CC[C@H](CN7CCN(C8CCN(c9cccc%10c9n(C)c(=O)n%10C9CCC(=O)NC9=O)CC8)CC7)CC6)nc5C(F)F)nn4)c3n2)CC1 (some centres unmarked) [Compound 231]	70 to 80%	0.5 to 1 nM	–
CN1CCN(c2ccn3ncc(-c4cn(-c5cn([C@H]6CC[C@H](CN7CCC8(CCN(c9cccc%10c9n(C)c(=O)n%10C9CCC(=O)NC9=O)CC8)C7)CC6)nc5C(F)F)nn4)c3n2)CC1 (some centres unmarked) [Compound 232]	> 80%	0.5 to 1 nM	–
CN1CCN(c2ccn3ncc(-c4cn(-c5cn([C@H]6CC[C@H](CN7CCC8(CC7)CCN(c7cccc9c7n(C)c(=O)n9C7CCC(=O)NC7=O)CC8)CC6)nc5C(F)F)nn4)c3n2)CC1 (some centres unmarked) [Compound 233]	70 to 80%	0.5 to 1 nM	–
Cn1c(=O)n(C2CCC(=O)NC2=O)c2cccc(N3CCN(C[C@H]4CC[C@H](n5cc(-n6cc(-c7cnn8ccc(N9CCC(C)(O)CC9)nc78)nn6)c(C(F)F)n5)CC4)CC3)c21 (some centres unmarked) [Compound 235]	> 80%	< 0.5 nM	–
Cn1c(=O)n(C2CCC(=O)NC2=O)c2cccc(N3CCN(C4CCN(C[C@H]5CC[C@H](n6cc(-n7cc(-c8cnn9ccc(N%10CCC(C)(O)CC%10)nc89)nn7)c(C(F)F)n6)CC5)CC4)CC3)c21 (some centres unmarked) [Compound 236]	> 80%	< 0.5 nM	–
Cn1c(=O)n(C2CCC(=O)NC2=O)c2cccc(N[C@H]3CC[C@H](N(C)C[C@H]4CC[C@H](n5cc(-n6cc(-c7cnn8ccc(N9CCC(C)(O)CC9)nc78)nn6)c(C(F)F)n5)CC4)CC3)c21 (some centres unmarked) [Compound 237]	70 to 80%	< 0.5 nM	–
Cn1c(=O)n(C2CCC(=O)NC2=O)c2cccc(N3CCN(C[C@H]4CC[C@H](n5cc(-n6cc(-c7cnn8ccc(NCCC(C)(C)O)nc78)nn6)c(C(F)F)n5)CC4)CC3)c21 (some centres unmarked) [Compound 239]	> 80%	< 0.5 nM	–
Cn1c(=O)n(C2CCC(=O)NC2=O)c2cccc(N3CCC4(CCN(C[C@H]5CC[C@H](n6cc(-n7cc(-c8cnn9ccc(NCCC(C)(C)O)nc89)nn7)c(C(F)F)n6)CC5)CC4)C3)c21 (some centres unmarked) [Compound 240]	> 80%	< 0.5 nM	–
C[C@H](C#Cc1cccc2c1n(C)c(=O)n2C1CCC(=O)NC1=O)OC1CCN(C[C@H]2CC[C@H](n3cc(-n4cc(-c5cnn6ccc(N7CCOCC7)nc56)nn4)c(C(F)F)n3)CC2)CC1 (stereo partly drawn) [Example 1, 3-(4-((R)-3-((1-(((1r,4R)-4-(3-(difluoromethyl)-4-(4-(5-morpholinopyrazolo[1,5-a]pyrimidin-3-yl)-1H-1,2,3-triazol-1-yl)-1H-pyrazol-1-yl)cyclohexyl)methyl)piperidin-4-yl)oxy)but-1-yn-1-yl)-3-methyl-2-oxo-2,3-dihydro-1H-benzo[d]imidazol-1-yl)piperidine-2,6-dione]	< 60%	–	< 0.5 nM
Cn1c(=O)n(C2CCC(=O)NC2=O)c2cccc(CCCN3CCOC(CNCC4CCC(n5cc(-n6cc(-c7cnn8ccc(N9CCOCC9)nc78)nn6)c(C(F)F)n5)CC4)C3)c21 [Example 2, 3-(4-(3-((S)-2-((((4-(-3-(difluoromethyl)-4-(4-(5-morpholinopyrazolo [1,5-a]pyrimidin-3-yl)-1H-1,2,3-triazol-1-yl)-1H-pyrazol-1-ylcyclohexyl)methyl)amino)methyl)morpholinyl)propyl)-3-methyl-2-oxo-2,3-dihydro-1H-benzo[d]imidazol-1-yl)piperidine-2,6-dione]	< 60%	–	< 0.5 nM
CN(Cc1cccc2c1n(C)c(=O)n2C1CCC(=O)NC1=O)CC1CCN(C[C@H]2CC[C@H](n3cc(-n4cc(-c5cnn6ccc(N7CCOCC7)nc56)nn4)c(C(F)F)n3)CC2)CC1 (some centres unmarked) [Example 3, 3-(4-((((1-(((1r,4r)-4-(3-(difluoromethyl)-4-(4-(5-morpholinopyrazolo[1,5-a]pyrimidin-3-yl)-1H-1,2,3-triazol-1-yl)-1H-pyrazol-1-yl)cyclohexyl)methyl)piperidin-4-yl)methyl)(methyl)amino)methyl)-3-methyl-2-oxo-2,3-dihydro-1H-benzo[d]imidazol-1-yl)piperidine-2,6-dione]	60 to 70%	–	< 0.5 nM
Cn1c(=O)n(C2CCC(=O)NC2=O)c2cccc(CN3CCC4(CC3)CC(NC[C@H]3CC[C@H](n5cc(-n6cc(-c7cnn8ccc(N9CCOCC9)nc78)nn6)c(C(F)F)n5)CC3)C4)c21 (some centres unmarked) [Example 4]	> 80%	–	< 0.5 nM
Cn1c(=O)n(C2CCC(=O)NC2=O)c2cccc(CN3CCC4(CC3)CN(C[C@H]3CC[C@H](n5cc(-n6cc(-c7cnn8ccc(N9CCOCC9)nc78)nn6)c(C(F)F)n5)CC3)CCO4)c21 (some centres unmarked) [Example 5]	< 60%	–	< 0.5 nM
